Reference: patent publication US20250020668A1, “CANCER LESION TISSUE EVALUATION FOR OPTIMIZING EFFECT OF BORON NEUTRON CAPTURE THERAPY” (3-D Matrix, Ltd., priority 2018, published 2025)

Tested on: PABPc1
Test: Immunoprecipitation with anti-BSH antibody from U251 cell crushing solution
Format: binding
Conditions: 50 μM, FIG. 2 and FIG. 3 combined
Procedure: To a cell crushing solution of a malignant brain tumor cell line U251, simple BSH (referred to BSH) (50 μM) or BSH-11R (50 μM) was added, and proteins which bind to BSH and BSH-11R were explored by immunoprecipitation with an anti-BSH antibody (10 μg).
To examine whether the binding of BSH-11R to the translation-related factors is a direct or indirect binding, a subline of malignant brain tumor cell line U251 that underwent knockdown of the translation-related factors with shRNA lentivirus was prepared. To the cell crushing solutions, BSH-11R (50 μM) was added, and translation-related factors that bind to BSH-11R were analyzed with an anti-BSH antibody (10 μg).

mercaptoundecahydrodecaborate [BSH]
binding to PABPc1: binds to BSH in an RNA-dependent manner
